Measurements reported in patent US11319289B2, “5-hydroxy pyridine-based compound for use as P2X1 and P2X3 receptor antagonist and pharmaceutical composition comprising same” (GWANGJU INSTITUTE OF SCIENCE AND TECHNOLOGY, priority 2017, dated 2022).

Legend:
[1] = system: CIPN rats (mechanical allodynia); experiment: Antiallodynic effect (von Frey) in chemotherapy-induced peripheral neuropathy (CIPN) rats; format: in vivo; details: Rattus norvegicus, intravenous administration
Method: 3-1. Evaluation of In Vivo Efficacy
The antiallodynic effects (mechanical allodynia) were evaluated using rats according to a previously reported protocol. In order to evaluate the withdrawal threshold, rats (naive, SNL and CIPN) were placed on a plastic mesh floor of individual plastic cages. The rats were allowed to acclimate to the environment for 30 minutes and examined after intrathecal or intravenous administration to the caudal vein. The control group received the same volume of vehicle (intrathecal administration of saline or DMSO, intravenous administration of DMSO:PEG:PBS=1:6:3 v/v %) as the experimental groups. Evaluation of the mechanical withdrawal threshold was measured in responses to the application of calibrated von Frey filaments (Stoelting, Wood Dale, Ill., USA) to the hind paw of the rats through the holes on the mesh floor underneath the cage using the ‘up and down method’. A series of eight von Frey filaments (0.4, 0.7, 1.2, 2.0, 3.6, 5.5, 8.5, and 15 g) was applied perpendicular to the sole of the hind paw for 5 seconds while the head was bent. Active withdrawal or flinching of the paw was considered as a positive reaction. The absence of response in the rats, when a pressure was applied to 15 g von Frey filament, was used as a cut-off value. Only rats with definite allodynia (i.e., mechanical withdrawal threshold: less than 4 g after SNL or less than 5 g after CIPN) were tested. The rats after termination of the experiments were euthanized through an overdose of sevoflurane. The withdrawal threshold data for the von Frey filament test was calculated as % MPE (maximum possible effect) based on the following Calculation Equation: % MPE=[(Post-drug threshold−Post-injured baseline threshold)/(Cutoff threshold−post-injured baseline threshold)×100]. Dose-response data were analyzed using Scheffe's post hoc test and one-way analysis of variance (ANOVA).

[2] = target: T1, rP2X2/3 receptors (Rattus norvegicus, UniProt P49653+P49654); experiment: Antagonistic effect for heterologous rP2X2/3 receptors; format: cell-based; details: FIG. 2
T1 sequence (P49653 1-472): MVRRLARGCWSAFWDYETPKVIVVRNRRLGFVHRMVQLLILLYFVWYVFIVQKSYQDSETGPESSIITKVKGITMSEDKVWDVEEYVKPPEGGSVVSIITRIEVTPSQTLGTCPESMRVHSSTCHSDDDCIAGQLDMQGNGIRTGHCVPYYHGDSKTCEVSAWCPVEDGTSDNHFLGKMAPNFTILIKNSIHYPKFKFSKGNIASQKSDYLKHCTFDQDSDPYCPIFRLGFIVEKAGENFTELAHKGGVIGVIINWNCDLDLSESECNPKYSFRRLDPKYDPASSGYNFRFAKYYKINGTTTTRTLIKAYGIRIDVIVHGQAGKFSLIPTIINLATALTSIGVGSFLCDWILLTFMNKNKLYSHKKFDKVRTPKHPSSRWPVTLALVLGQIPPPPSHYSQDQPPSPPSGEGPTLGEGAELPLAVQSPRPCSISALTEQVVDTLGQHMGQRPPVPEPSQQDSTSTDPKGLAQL
T1 sequence (P49654 1-397): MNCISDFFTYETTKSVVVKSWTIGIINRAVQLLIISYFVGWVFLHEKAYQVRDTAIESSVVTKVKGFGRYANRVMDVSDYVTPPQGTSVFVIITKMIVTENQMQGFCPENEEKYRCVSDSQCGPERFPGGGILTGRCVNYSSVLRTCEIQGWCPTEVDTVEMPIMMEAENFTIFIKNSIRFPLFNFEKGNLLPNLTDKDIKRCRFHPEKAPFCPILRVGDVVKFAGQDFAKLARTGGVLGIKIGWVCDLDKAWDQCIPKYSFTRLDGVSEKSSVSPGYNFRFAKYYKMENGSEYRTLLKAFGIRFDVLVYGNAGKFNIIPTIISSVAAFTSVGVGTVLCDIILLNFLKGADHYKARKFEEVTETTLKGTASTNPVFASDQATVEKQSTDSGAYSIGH
Source text: FIGS. 2a to 2c show the antagonistic activity of Compound 29 of the present invention for P2X3 and P2X2/3 receptors (2a: hP2X3R, 2b: […]).

[3] = target: T2, CYP450 3A4 (Homo sapiens, UniProt P08684); experiment: CYP inhibition assay (Vivid fluorometric), 3A4; format: biochemical; details: 1 μM in Table 5
T2 construct: purchased Invitrogen
Method: CYP450 (1A2, 2C9, 3A4) enzyme assay was performed by a fluorometric assay using a Vivid® CYP450 screening kit (Invitrogen, USA, CA) in a 96-well black plate according to manufacturer's instructions with some modifications. The assay was performed at room temperature, and the final assay volume was 100 μL. […]
A master pre-mixture (enzyme (0.5 nmol recombinant human CYP450 enzyme)/NADP regeneration solution (333 mM glucose-6-phosphate dissolved, 30 U/mL glucose-6-phosphate dehydrogenase in 100 mM KH2PO4 solution at pH 8.0)) was prepared as a CYP450 reaction buffer (200 mM KH2PO4, pH 8.0). The master pre-mixture was added to each well of the 96 well plate, followed by the vehicle DMSO (control) and test compounds, and the mixture was preincubated for 10 minutes in the plate for background reading. Subsequently, the enzyme reaction was immediately initiated through the addition of CYP450 substrate/NADP^+ mixture. After incubation for 40 minutes, the fluorescence of the product was measured with a CHAMELEON™ multi-technology plate reader (2C9, 3A4: excitation wavelength of 530 nm and emission wavelength of 590 nm, 1A2: excitation wavelength of 415 nm and emission wavelength of 460 nm). The effect of the test compounds on CYP450 (1A2, 2C9, 3A4) was expressed as the percentage of enzyme activity.

T2 sequence (P08684 whole entry): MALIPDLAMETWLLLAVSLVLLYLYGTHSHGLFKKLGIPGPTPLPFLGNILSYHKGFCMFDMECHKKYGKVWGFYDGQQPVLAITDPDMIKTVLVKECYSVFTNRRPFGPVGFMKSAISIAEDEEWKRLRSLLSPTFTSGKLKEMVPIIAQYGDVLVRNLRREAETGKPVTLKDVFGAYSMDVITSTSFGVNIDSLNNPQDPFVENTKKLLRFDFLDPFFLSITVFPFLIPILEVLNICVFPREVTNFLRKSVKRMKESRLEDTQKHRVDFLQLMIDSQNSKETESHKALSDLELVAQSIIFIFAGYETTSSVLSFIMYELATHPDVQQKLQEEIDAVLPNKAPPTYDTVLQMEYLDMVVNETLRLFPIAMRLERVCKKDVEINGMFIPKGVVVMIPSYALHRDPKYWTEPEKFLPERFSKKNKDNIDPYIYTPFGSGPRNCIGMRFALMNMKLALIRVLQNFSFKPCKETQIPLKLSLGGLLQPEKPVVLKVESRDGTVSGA

Structure (SMILES) | ED50 [1] | antagonistic effect for heterologous rP2X2/3 receptors [2] | CYP450 inhibition, 3A4 isozyme [3]
CCCc1nc(Cc2cccc(Oc3ccccc3)c2)c(C)c(C(=O)OC)c1O [Compound 28, Methyl 3-hydroxy-5-methyl-6-(3-phenoxybenzyl)-2-propylisonicotinate] | 2.93 mg/kg |  | 
CCCc1nc(Cc2cccc(Oc3ccccc3)c2)c(C)c(C(=O)O)c1O [Compound 29, 3-Hydroxy-5-methyl-6-(3-phenoxybenzyl)-2-propylisonicotinic acid] |  | showed an antagonistic effect | weak inhibitory effect
